Measurements: US9925179B2, “Combination therapy for mental disorders” (priority 2014, dated 2018)
Where “and” joins values, the source holds several entries; their conditions need not be identical. Equal entries are not always repeated.

Assays:
BDNF = assay: Plasma BDNF by ELISA in 12-week add-on trial; format: in vivo, human; conditions: for Within group change (baseline minus endpoint) BDNF, Mean ± SD: BP-II patients, plasma, add-on to valproic acid, 12-week follow-up; for BDNF, difference versus placebo, B (standardized coefficient): GEE interaction term, placebo as reference, controlling for age, gender, treatment duration, HDRS and YMRS
Description: (§1) 250˜300 male and female BP-II patients (18˜65 years old) were recruited, from the Department of Psychiatry at National Cheng Kung University Hospital and Tri-Service General Hospital into a 12-week treatment. The research protocol was examined for approval by the Institutional Review Board for the Protection of Human Subjects at National Cheng Kung University Hospital and Tri-Service General Hospital. All participants were given a complete description of the study and were asked to sign an informed consent before the study began. Patients who had major, mental illnesses other than BP-II and who had taken memantine or DM within 1 week before the first dose of the double-blind medication were excluded. The Chinese Version of Modified Schedule of Affective Disorder and Schizophrenia-Life Time (SADS-L) will be conducted for confirmation of the diagnosis. […] After each patient had been diagnosed based on DSM-IV criteria by a senior psychiatrist and confirmed by a clinical psychologist using a structured interview, SADS-L, the severity of each patient's clinical symptoms was assessed using the 17-item Hamilton Rating Scale for Depression (HRSD) and the Young Mania Rating Scale (YMRS). All the patients at Screen who score 18 on the HRSD or 14 on the YMRS were recruited. Eligible patients were randomly assigned into four treatment groups (n=40-45 for each group) in a double-blind manner and all groups matched in demographic characteristics, symptom severity, while they received open-label valproic acid (VPA) treatment (500 mg and 1000 mg daily [[…] in plasma]): 1) DM (30 mg/day), 2) memantine (5 mg/day), 3) combination of DM and memantine (30 mg/day DM and 5 mg/day memantine), and 4) placebo respectively for 12 weeks. Patients were randomized into 4 groups through a computer-generated randomization table to receive placebo or any of active treatments in a 1:1:1:1 ratio. The patients with side-effect intolerance or clinical worsening were withdrawn earlier.
Serum levels of DM, memantine, plasma BDNF, and cytokines were measured. […] of whole blood was drawn and collected from the antecubital vein. Plasma were isolated from the whole blood after the 3000 g centrifugation at 4° C. for 15 min and stored at −80° C. immediately. Plasma BDNF, CRP, TNF-α, were measured at baseline, 1, 2, 4, 8 and 12 weeks and quantified using the enzyme-linked immunosorbent assays (ELISAs). Cytokine levels were quantified using an antibody pair assay system (Flexia; BioSource Intl., Camarillo, Calif.). Sample processing and data analysis were done according to the manufacturer's instructions. The low limit sensitivity was 0.126 pg/ml, 0.057 pg/ml, and 20 pg/ml for TNF-α, IL-1β, and BDNF respectively. Finally, HPLC with UV detector and therapeutic drug monitoring (TDM) was used to measure the plasma DM and VPA level respectively.
Symptom severity, immunological parameters (plasma tumor necrosis factor α (TNF-α) and C-reactive protein (CRP)) and plasma brain derived neurotrophic factor (BDNF) were examined regularly. Metabolic profiles (cholesterol, triglyceride, HbA1C, fasting serum glucose, body mass index [BMI]) were measured at baseline and 2, 8, and 12 weeks. Concomitant benzodiazepine medication (lorazepam <8 mg) was used for nighttime sedation, and to treat agitation and insomnia during the study. […]
(§2) The overall within-group changes of each outcome over the 12 weeks were analyzed by paired sample t-test. […]

BP-II patients [1] = assay: Symptom severity (HDRS, YMRS) in 12-week randomized double-blind placebo-controlled add-on trial; format: in vivo, human; conditions: for Within group change (baseline minus endpoint) HDRS, Mean ± SD / Within group change (baseline minus endpoint) YMRS, Mean ± SD: BP-II patients, add-on to valproic acid, 12-week follow-up; for HDRS, difference versus placebo, B (standardized coefficient) / YMRS, difference versus placebo, B (standardized coefficient): GEE, treatment group x treatment duration interaction, placebo as reference, controlling for age, gender, treatment duration
Description: as §1
Efficacy will be assessed by the YMRS, HDRS and Side-Effects.
Clinical ratings were performed by research psychiatric professionals who were well-trained and experienced in the rating scales. All assessments were blind to treatment assignment and completed at baseline and at the end of week 1, 2, 4, 8 and 12. Routine laboratory tests, including CBC and biochemistry were checked at baseline and the end of week 12.
(2) Young Mania Rating Scale (YMRS) and 17-item Hamilton Depression Rating Scale (HDRS)
Those clinically suspected of having a mood disorder were invited to be interviewed with the Chinese version SADS-L and diagnosed as having BP-II. The severity of current symptoms was assessed by using the YMRS and HDRS. The diagnosis of a mood disorder was made according to DSM-IV criteria, except for BP-II, for which we used a 2-day instead of a 4-day duration for hypomania.
(§3) The intent to-treat (ITT) analysis set included all randomized patients who received at least one dose of study drug, and had one baseline assessment and at least one after baseline. All the outcome variables were analyzed in the ITT set, including HDRS, YMRS, cytokine levels, plasma BDNF levels and metabolic parameters; missing data was filled in using the last observation carried forward (LOCF) method.
(§4) The overall within-group changes of each outcome over the 12 weeks were analyzed by paired sample t-test. To compare the difference in outcomes of add-on medication (DM30, MM5, and DM30+MM5) versus placebo, generalized estimating equation (GEE) was adopted. A total of 10 models ran with each outcome as a dependent variable. In each model, add-on medication received (DM30, MM5, and DM30+MM5 vs. controls), treatment duration, treatment received X treatment duration, gender, and age were included as independent variables. The covariance structure employed was autoregressive (AR(1)) model. The placebo group was used as reference group. […]

TNF-α = assay: Plasma TNF-α by ELISA in 12-week add-on trial; format: in vivo, human; conditions: for Within group change (baseline minus endpoint) TNF-α, Mean ± SD: BP-II patients, plasma, add-on to valproic acid, 12-week follow-up; for TNF-α, difference versus placebo, B (standardized coefficient): GEE interaction term, placebo as reference, controlling for age, gender, treatment duration, HDRS and YMRS
Description: as §1
Serum levels of DM, memantine, plasma BDNF, and cytokines were measured. […] Plasma BDNF, CRP, TNF-α, were measured at baseline, 1, 2, 4, 8 and 12 weeks and quantified using the enzyme-linked immunosorbent assays (ELISAs). Cytokine levels were quantified using an antibody pair assay system (Flexia; BioSource Intl., Camarillo, Calif.). […]
Symptom severity, immunological parameters (plasma tumor necrosis factor α (TNF-α) and C-reactive protein (CRP)) and plasma brain derived neurotrophic factor (BDNF) were examined regularly. Metabolic profiles (cholesterol, triglyceride, HbA1C, fasting serum glucose, body mass index [BMI]) were measured at baseline and 2, 8, and 12 weeks. […]
as §2

[2] = Example 2: 4-week clinical trial of dextromethorphan added on to depakine, cholesterol and LDL; format: in vivo, human; conditions: 30 mg/day added on to depakine
Procedure: This example was a clinical trial for the treatment of bipolar II disorder using 30 mg/day of dextromethorphan (off label use) adding on to depakine (plasma level […]). 44 patients with bipolar II disorder were recruited, and change of cholesterol was monitored only over 4 weeks.

CRP = assay: Plasma CRP by ELISA in 12-week add-on trial; format: in vivo, human; conditions: for Within group change (baseline minus endpoint) CRP, Mean ± SD: BP-II patients, plasma, add-on to valproic acid, 12-week follow-up; for CRP, difference versus placebo, B (standardized coefficient): GEE interaction term, placebo as reference, controlling for age, gender, treatment duration, HDRS and YMRS
[3] = cited from earlier work
[4] = Metabolic profiles (cholesterol, HDL-C, LDL-C, triglyceride, glucose) in 12-week add-on trial; format: in vivo, human; conditions: for Within group change (baseline minus endpoint) Glucose, Mean ± SD / Within group change (baseline minus endpoint) HDL-C, Mean ± SD / Within group change (baseline minus endpoint) LDL-C, Mean ± SD / Within group change (baseline minus endpoint) Total cholesterol, Mean ± SD / Within group change (baseline minus endpoint) Triglyceride, Mean ± SD: BP-II patients, add-on to valproic acid, 12-week follow-up; for Glucose, difference versus placebo, B (standardized coefficient) / HDL-C, difference versus placebo, B (standardized coefficient) / LDL-C, difference versus placebo, B (standardized coefficient) / Total Cholesterol, difference versus placebo, B (standardized coefficient) / Triglyceride, difference versus placebo, B (standardized coefficient): GEE interaction term, placebo as reference, controlling for age, gender, treatment duration, HDRS and YMRS
Description: as §1
Symptom severity, immunological parameters (plasma tumor necrosis factor α (TNF-α) and C-reactive protein (CRP)) and plasma brain derived neurotrophic factor (BDNF) were examined regularly. Metabolic profiles (cholesterol, triglyceride, HbA1C, fasting serum glucose, body mass index [BMI]) were measured at baseline and 2, 8, and 12 weeks. Concomitant benzodiazepine medication (lorazepam <8 mg) was used for nighttime sedation, and to treat agitation and insomnia during the study. Up to 20 mg/daily of fluoxetine was permitted for associated depressive symptoms.
as §3
as §4, with “group. The interaction term of treatment received X treatment duration was regarded as effect of add-on DM30, MM5, and DM30+MM5. To analyze correlations between cytokines, BDNF and metabolic profiles, GEE analysis was used as well.” for “group.”

[5] = system: opioid addictive behavior; conditions: rat, 0.2 mg/kg (1/100 dosage); cited from earlier work
BP-II patients [6] = assay: Side effects / discontinuation in 12-week add-on trial; format: in vivo, human; conditions: 12-week trial, n=66 in group
Description: 250˜300 male and female BP-II patients (18˜65 years old) were recruited, from the Department of Psychiatry at National Cheng Kung University Hospital and Tri-Service General Hospital into a 12-week treatment. The research protocol was examined for approval by the Institutional Review Board for the Protection of Human Subjects at National Cheng Kung University Hospital and Tri-Service General Hospital. All participants were given a complete description of the study and were asked to sign an informed consent before the study began. Patients who had major, mental illnesses other than BP-II and who had taken memantine or DM within 1 week before the first dose of the double-blind medication were excluded. […] After each patient had been diagnosed based on DSM-IV criteria by a senior psychiatrist and confirmed by a clinical psychologist using a structured interview, SADS-L, the severity of each patient's clinical symptoms was assessed using the 17-item Hamilton Rating Scale for Depression (HRSD) and the Young Mania Rating Scale (YMRS). […]
The severity of side effects was evaluated by using the Chinese version of Side-Effects Checklist which derived from Psychiatric Rating and Diagnostic Instruments (TRIMS, 1972) and included 7 categories as follows: 1) Mental Status; 2) Genito-Urinary; 3) Cardiovascular; 4) Head-Neck; 5) Extremities; 6) Skin; 7) Gastrointestinal. […]

Row | SMILES | Within group change (baseline minus endpoint) BDNF, Mean ± SD (BDNF) | BDNF, difference versus placebo, B (standardized coefficient) (BDNF) | Within group change (baseline minus endpoint) HDRS, Mean ± SD (BP-II patients [1]) | Within group change (baseline minus endpoint) YMRS, Mean ± SD (BP-II patients [1]) | HDRS, difference versus placebo, B (standardized coefficient) (BP-II patients [1]) | YMRS, difference versus placebo, B (standardized coefficient) (BP-II patients [1]) | Within group change (baseline minus endpoint) TNF-α, Mean ± SD (TNF-α) | TNF-α, difference versus placebo, B (standardized coefficient) (TNF-α) | Within group change (baseline minus endpoint) CRP, Mean ± SD (CRP) | CRP, difference versus placebo, B (standardized coefficient) (CRP) | Within group change (baseline minus endpoint) Glucose, Mean ± SD [4] | Within group change (baseline minus endpoint) HDL-C, Mean ± SD [4] | Within group change (baseline minus endpoint) LDL-C, Mean ± SD [4] | Within group change (baseline minus endpoint) Total cholesterol, Mean ± SD [4] | Within group change (baseline minus endpoint) Triglyceride, Mean ± SD [4] | Glucose, difference versus placebo, B (standardized coefficient) [4] | HDL-C, difference versus placebo, B (standardized coefficient) [4] | LDL-C, difference versus placebo, B (standardized coefficient) [4] | Total Cholesterol, difference versus placebo, B (standardized coefficient) [4] | Triglyceride, difference versus placebo, B (standardized coefficient) [4] | further results
1 | COc1ccc2c(c1)[C@]13CCCC[C@@H]1[C@H](C2)N(C)CC3 [DM30, dextromethorphan] | -2.3 ± 8.3 ng/mL | 2.94 | 6.4 ± 4.7 | 4.7 ± 3.4 | −1.38 | −1.00 | 0.1 ± 2.5 pg/mL | −0.04 | 10.9 ± 1290.3 ng/mL | 0.05 | 9.0 ± 38.1 mg/dL | 1.6 ± 10.2 mg/dL | -0.9 ± 23.1 mg/dL | -0.1 ± 28.7 mg/dL | -11.6 ± 168.4 mg/dL | −5.33 | 0.79 | 8.80 | 6.95 | 28.08 | BDNF level, within group change, in words (BDNF; after 12 weeks of treatment): Significant improved; cholesterol and LDL in human, in words ([2]; 4 weeks): decreased; low density lipid protein (LDL), first value (before treatment) ([2]; 44 bipolar II patients): 127.70 ± 34.24 mg/dL; total cholesterol, first value (before treatment) ([2]; 44 bipolar II patients): 194.70 ± 39.49 mg/dL; total cholesterol over 4-week of treatment, second value ([2]; 44 bipolar II patients, P=0.09): 186.16 ± 37.95 mg/dL; low density lipid protein (LDL) over 4-week of treatment, second value ([2]; 44 bipolar II patients, P=0.13): 120.84 ± 34.013 mg/dL; plasma levels of DM ([3]; BP patients, U.S. Pat. No. 8,785,472): 5 to 100 ng/mL; plasma DM concentrations ([3]; patients taking 30-60 mg/70 kg of DM, listed as DM): 10-30 ng/ml and 28-84 nM
2 | CC12CC3CC(C)(C1)CC(N)(C3)C2 [MM5, memantine] | 0.3 ± 7.6 ng/mL | 0.02 | 6.3 ± 4.9 | 4.6 ± 3.9 | −1.33 | −0.98 | 0.3 ± 1.8 pg/mL | −0.15 | -12.6 ± 1269.4 ng/mL | 0.09 | -3.3 ± 22.6 mg/dL | 2.4 ± 8.7 mg/dL | 2.6 ± 22.0 mg/dL | 0.5 ± 24.5 mg/dL | -10.7 ± 38.7 mg/dL | 7.63 | −0.07 | 4.45 | 3.14 | 8.81 | opioid addictive behavior by conditioned place preference, in words [5]: effective; patients discontinuing with poor tolerance to a side effect (dizziness) (BP-II patients [6]): One
